# According to US9896418B2, “Aryl ethers and uses thereof” (Peloton Therapeutics, Inc., priority 2013, dated 2018):
# Tested on: HIF-2α HIS TAG-PASB Domain
# Assay: HIF-2α Scintillation Proximity Assay (SPA)
# Assay type: binding
# Method: The percent inhibition was determined and IC50 values were calculated using the Dotmatics system based on the following equation: % inhibition=[(high control−sample)/(high control−low control)]×100.
row,Structure (SMILES),IC50 [nM]
1,"N#Cc1cc(S(=O)(=O)C(F)F)ccc1Oc1cc(F)cc(Cl)c1 [Compound 133, 2-(3-Chloro-5-fluorophenoxy)-5-((difluoromethyl)sulfonyl)benzonitrile]",500
2,"N#Cc1cc(F)cc(Oc2ccc(S(=O)(=O)C(F)F)cc2C#N)c1 [Compound 134, 2-(3-Cyano-5-fluorophenoxy)-5-((difluoromethyl)sulfonyl)benzonitrile]",450
3,"Cc1cc(S(=O)(=O)C(F)F)ccc1Oc1cc(F)cc(Cl)c1 [Compound 135, 1-(3-Chloro-5-fluoro-phenoxy)-4-(difluoromethylsulfonyl)-2-methyl-benzene]",370
4,"Cc1cc(S(=O)(=O)C(F)F)ccc1Oc1cc(F)cc(C#N)c1 [Compound 136, 3-[4-(Difluoromethylsulfonyl)-2-methyl-phenoxy]-5-fluoro-benzonitrile]",230
5,"CS(=O)(=O)c1ccc(Oc2cc(F)cc(Cl)c2)c(Br)c1 [Compound 138, 2-Bromo-1-(3-chloro-5-fluorophenoxy)-4-(methylsulfonyl)benzene]",4000
6,"Cc1c(Oc2cc(F)cc(C#N)c2)ccc(S(=O)(=O)C(F)(F)F)c1C=O [Compound 145, 3-Fluoro-5-[3-formyl-2-methyl-4-(trifluoromethylsulfonyl)phenoxy]benzonitrile]",74
7,"COC(=O)/C=C/c1c(S(=O)(=O)C(F)(F)F)ccc(Oc2cc(F)cc(C#N)c2)c1C [Compound 147, Methyl (E)-3-[3-(3-cyano-5-fluoro-phenoxy)-2-methyl-6-(trifluoromethylsulfonyl)phenyl]prop-2-enoate]",110
8,"CCOC(=O)/C=C/c1c(S(=O)(=O)C(F)(F)F)ccc(Oc2cc(F)cc(C#N)c2)c1C [Compound 148, Ethyl (E)-3-(3-(3-cyano-5-fluorophenoxy)-2-methyl-6-((trifluoromethyl)sulfonyl)phenyl)acrylate]",220
9,"Cc1c(Oc2cc(F)cc(C#N)c2)ccc(S(=O)(=O)C(F)(F)F)c1/C=C/C(=O)NCc1ccccc1 [Compound 149, (E)-N-Benzyl-3-(3-(3-cyano-5-fluorophenoxy)-2-methyl-6-((trifluoromethyl)sulfonyl)phenyl)acrylamide]",5700
10,"Cc1c(Oc2cc(F)cc(C#N)c2)ccc(S(=O)(=O)C(F)(F)F)c1/C=C/c1nnco1 [Compound 150, 3-Fluoro-5-[2-methyl-3-[(E)-2-(1,3,4-oxadiazol-2-yl)vinyl]-4-(trifluoromethylsulfonyl)phenoxy]benzonitrile]",1300
11,"Cc1nnc(/C=C/c2c(S(=O)(=O)C(F)(F)F)ccc(Oc3cc(F)cc(C#N)c3)c2C)o1 [Compound 151, 3-Fluoro-5-[2-methyl-3-[(E)-2-(5-methyl-1,3,4-oxadiazol-2-yl)vinyl]-4-(trifluoromethylsulfonyl)phenoxy]benzonitrile]",1100
12,"CS(=O)(=O)c1ccc(Oc2cc(F)cc(C#N)c2)c(C#N)c1Cl [Compound 152, 2-chloro-6-(3-cyano-5-fluorophenoxy)-3-(methylsulfonyl)benzonitrile]",320
13,"C/C=C/c1c(S(=O)(=O)C(F)F)ccc(Oc2cc(F)cc(C#N)c2)c1C#N [Compound 178, (E)-6-(3-Cyano-5-fluorophenoxy)-3-((difluoromethyl)sulfonyl)-2-(prop-1-en-1-yl)benzonitrile]",920
14,"CS(=N)(=O)c1ccc(Oc2cc(F)cc(Cl)c2)c(C#N)c1Cl (centres unmarked) [Compound 180, 2-Chloro-6-(3-chloro-5-fluorophenoxy)-3-(S-methylsulfonimidoyl)benzonitrile]",9400
15,"O=C1c2c(S(=O)(=O)C(F)F)ccc(Oc3cncc(Cl)c3)c2CC1(F)F [Compound 182, 4-((5-Chloropyridin-3-yl)oxy)-7-((difluoromethyl)sulfonyl)-2,2-difluoro-2,3-dihydro-1H-inden-1-one]",380
16,"CS(=O)(=NC#N)c1ccc(Oc2cc(F)cc(F)c2)c2c1C(O)CC2 (centres unmarked) [Compound 189, N-((7-(3,5-Difluorophenoxy)-3-hydroxy-2,3-dihydro-1H-inden-4-yl)(methyl)(oxo)-λ^6-sulfanylidene)cyanamide]",3200
17,"CS(=N)(=O)c1ccc(Oc2cc(F)cc(F)c2)c2c1C(O)CC2 (centres unmarked) [Compound 190, (7-(3,5-Difluorophenoxy)-3-hydroxy-2,3-dihydro-1H-inden-4-yl)(imino)(methyl)-λ^6-sulfanone]",580
18,"O=C1c2c(S(=O)(=O)C(F)F)ccc(Oc3ccc(F)c(Br)c3)c2CC1(F)F [Compound 193, 4-(3-Bromo-4-fluorophenoxy)-7-((difluoromethyl)sulfonyl)-2,2-difluoro-2,3-dihydro-1H-inden-1-one]",900
19,"O=C1c2c(S(=O)(=O)C(F)F)ccc(Oc3ccc(F)c(F)c3)c2CC1(F)F [Compound 195, 7-((Difluoromethyl)sulfonyl)-4-(3,4-difluorophenoxy)-2,2-difluoro-2,3-dihydro-1H-inden-1-one]",110
20,"Cc1cc(Oc2ccc(S(=O)(=O)C(F)F)c3c2CC(F)(F)C3=O)ccc1F [Compound 197, 7-((Difluoromethyl)sulfonyl)-2,2-difluoro-4-(4-fluoro-3-methylphenoxy)-2,3-dihydro-1H-inden-1-one]",770
21,"N#Cc1cc(F)cc(Oc2ccc(S(=O)(=O)C(F)F)c3c2CCC3F)c1 (centres unmarked) [Compound 202, 3-((7-((Difluoromethyl)sulfonyl)-1-fluoro-2,3-dihydro-1H-inden-4-yl)oxy)-5-fluorobenzonitrile]",680

# Now from value to compound:
row,IC50 [nM],Structure (SMILES)
1,5500,"C=CS(=O)(=O)c1ccc(Oc2cc(F)cc(Cl)c2)c(Br)c1 [Compound 130, 2-Bromo-1-(3-chloro-5-fluorophenoxy)-4-(vinylsulfonyl)benzene]"
2,310,"O=S(=O)(c1ccc(Oc2cc(F)cc(Cl)c2)c(Br)c1)C(F)F [Compound 131, 2-Bromo-1-(3-chloro-5-fluorophenoxy)-4-((difluoromethyl)sulfonyl)benzene]"
3,310,"N#Cc1cc(F)cc(Oc2ccc(S(=O)(=O)C(F)F)cc2Br)c1 [Compound 132, 3-(2-Bromo-4-((difluoromethyl)sulfonyl)phenoxy)-5-fluorobenzonitrile]"
4,560,"O=S(=O)(CF)c1ccc(Oc2cc(F)cc(Cl)c2)c(Br)c1 [Compound 137, 2-Bromo-1-(3-chloro-5-fluorophenoxy)-4-((fluoromethyl)sulfonyl)benzene]"
5,29,"Cc1c(Oc2cc(F)cc(Cl)c2)ccc(S(=O)(=O)C(F)(F)F)c1Br [Compound 140, 3-Bromo-1-(3-chloro-5-fluoro-phenoxy)-2-methyl-4-(trifluoromethylsulfonyl)benzene]"
6,65,"Cc1c(Oc2cc(F)cc(C#N)c2)ccc(S(=O)(=O)C(F)(F)F)c1Br [Compound 141, 3-[3-Bromo-2-methyl-4-(trifluoromethylsulfonyl)phenoxy]-5-fluoro-benzonitrile]"
7,13000,"Cc1c(Oc2cc(F)cc(C#N)c2)ccc(S(=O)(=O)C(F)(F)F)c1C#CCO [Compound 142, 3-Fluoro-5-[3-(3-hydroxyprop-1-ynyl)-2-methyl-4-(trifluoromethylsulfonyl)phenoxy]benzonitrile]"
8,20,"Cc1c(Oc2cc(F)cc(Cl)c2)ccc(S(=O)(=O)C(F)(F)F)c1Cl [Compound 143, 3-Chloro-1-(3-chloro-5-fluoro-phenoxy)-2-methyl-4-(trifluoromethylsulfonyl)benzene]"
9,44,"Cc1c(Oc2cc(F)cc(C#N)c2)ccc(S(=O)(=O)C(F)(F)F)c1Cl [Compound 144, 3-Fluoro-5-[3-chloro-2-methyl-4-(trifluoromethylsulfonyl)phenoxy]benzonitrile]"
10,230,"N#Cc1c(Oc2cc(F)cc(Cl)c2)ccc(S(=O)(=O)C(F)(F)F)c1F [Compound 153, 6-(3-chloro-5-fluorophenoxy)-2-fluoro-3-((trifluoromethyl)sulfonyl)benzonitrile]"
11,11700,"N#Cc1c(Oc2cc(F)cc(Cl)c2)ccc(S(=O)(=O)C(F)(F)F)c1NCCO [Compound 154, 6-(3-Chloro-5-fluoro-phenoxy)-2-(2-hydroxyethylamino)-3-(trifluoromethylsulfonyl)benzonitrile]"
12,1900,"O=S(=O)(c1ccc(Oc2ccc(Cl)c(Cl)c2)c(Br)c1)C(F)(F)F [Compound 169, 2-Bromo-1-(3,4-dichlorophenoxy)-4-((trifluoromethyl)sulfonyl)benzene]"
13,1800,"O=S(=O)(c1ccc(Oc2cc(Cl)ccc2F)c(Br)c1)C(F)(F)F [Compound 170, 2-Bromo-1-(5-chloro-2-fluorophenoxy)-4-((trifluoromethyl)sulfonyl)benzene]"
14,1200,"Cc1c(Cl)cccc1Oc1ccc(S(=O)(=O)C(F)(F)F)cc1Br [Compound 171, 1-(2-Bromo-4-((trifluoromethyl)sulfonyl)phenoxy)-3-chloro-2-methylbenzene]"
15,310,"O=S(=O)(c1ccc(Oc2cc(Cl)cc(Cl)c2)c(Br)c1)C(F)(F)F [Compound 172, 2-Bromo-1-(3,5-dichlorophenoxy)-4-((trifluoromethyl)sulfonyl)benzene]"
16,2000,"Cc1cc(C)cc(Oc2ccc(S(=O)(=O)C(F)(F)F)cc2Br)c1 [Compound 173, 2-Bromo-1-(3,5-dimethylphenoxy)-4-((trifluoromethyl)sulfonyl)benzene]"
17,1200,"Cc1ccc(Cl)cc1Oc1ccc(S(=O)(=O)C(F)(F)F)cc1Br [Compound 174, 2-Bromo-1-(5-chloro-2-methylphenoxy)-4-((trifluoromethyl)sulfonyl)benzene]"
18,18000,"O=S(=O)(c1ccc(Oc2cc(F)cc(CO)c2)c(Br)c1)C(F)(F)F [Compound 177, (3-(2-Bromo-4-((trifluoromethyl)sulfonyl)phenoxy)-5-fluorophenyl)methanol]"
19,23,"O=S(=O)(c1ccc(Oc2cc(F)cc(Cl)c2)c(Br)c1Cl)C(F)(F)F [Compound 179, 2-Bromo-3-chloro-1-(3-chloro-5-fluorophenoxy)-4-((trifluoromethyl)sulfonyl)benzene]"
20,720,"O=S(=O)(c1ccc(Oc2cncc(Cl)c2)c2c1[C@H](O)CC2)C(F)(F)F [Compound 184, (R)-4-((5-Chloropyridin-3-yl)oxy)-7-((trifluoromethyl)sulfonyl)-2,3-dihydro-1H-inden-1-ol]"
